Source: ChEMBL document CHEMBL4321812, “Structure-based rational design of staurosporine-based fluorescent probe with broad-ranging kinase affinity for kinase panel application” (Bioorg Med Chem Lett, 2019)

Experiments:
[1] = target: Serine/threonine-protein kinase Chk1 (Homo sapiens, UniProt O14757); assay: Binding affinity to recombinant human full-length N-terminal His-tagged CHEK1 expressed in baculovirus expression system using CHKtide as substrate incubated for 1 hr by TR-FRET assay
CDK2/Cyclin A2 = CDK2/Cyclin A2 (Homo sapiens, UniProt P24941); assay: Binding affinity to recombinant human full-length N-terminal GST-tagged CDK2/cyclin A2 expressed in baculovirus expression system using modified Histone H1 as substrate incubated for 1 hr by TR-FRET assay
[2] = target: Tyrosine-protein kinase ABL1 (Homo sapiens, UniProt P00519); assay: Binding affinity to recombinant human full-length N-terminal His-tagged ABL1 expressed in baculovirus expression system incubated for 1 hr by TR-FRET assay
Tyrosine-protein kinase ABL1, sequence (P00519 whole entry, the tested form may be a part): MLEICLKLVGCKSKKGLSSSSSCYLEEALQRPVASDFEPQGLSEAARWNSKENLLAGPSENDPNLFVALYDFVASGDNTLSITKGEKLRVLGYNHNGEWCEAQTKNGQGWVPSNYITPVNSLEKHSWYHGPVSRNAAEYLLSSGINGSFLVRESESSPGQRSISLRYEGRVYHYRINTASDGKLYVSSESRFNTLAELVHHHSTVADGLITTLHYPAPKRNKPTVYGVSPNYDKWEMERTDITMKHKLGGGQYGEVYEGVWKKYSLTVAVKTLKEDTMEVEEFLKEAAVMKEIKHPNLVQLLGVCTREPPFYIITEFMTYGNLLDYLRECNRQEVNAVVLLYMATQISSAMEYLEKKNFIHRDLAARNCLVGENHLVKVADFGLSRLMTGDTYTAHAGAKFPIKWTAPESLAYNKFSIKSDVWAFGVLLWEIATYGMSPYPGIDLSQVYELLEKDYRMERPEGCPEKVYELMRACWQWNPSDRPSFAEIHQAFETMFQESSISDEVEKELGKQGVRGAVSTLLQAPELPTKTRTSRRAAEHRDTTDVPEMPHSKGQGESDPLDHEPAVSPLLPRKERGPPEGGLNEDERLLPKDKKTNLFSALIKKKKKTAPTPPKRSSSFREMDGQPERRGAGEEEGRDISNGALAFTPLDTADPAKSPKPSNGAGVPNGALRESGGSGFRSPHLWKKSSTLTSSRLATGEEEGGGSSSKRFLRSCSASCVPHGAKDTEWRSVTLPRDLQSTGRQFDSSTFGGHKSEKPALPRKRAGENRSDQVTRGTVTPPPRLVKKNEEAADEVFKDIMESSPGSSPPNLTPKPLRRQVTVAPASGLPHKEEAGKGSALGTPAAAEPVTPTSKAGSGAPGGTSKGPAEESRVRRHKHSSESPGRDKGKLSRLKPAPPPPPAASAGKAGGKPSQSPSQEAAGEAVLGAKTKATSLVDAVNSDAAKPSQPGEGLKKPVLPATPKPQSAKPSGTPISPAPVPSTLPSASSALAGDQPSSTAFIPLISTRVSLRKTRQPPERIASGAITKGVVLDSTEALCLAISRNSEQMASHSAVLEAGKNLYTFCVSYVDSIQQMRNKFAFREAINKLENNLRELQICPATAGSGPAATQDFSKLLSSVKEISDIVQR

[3] = target: Tyrosine-protein kinase JAK2 (Homo sapiens, UniProt O60674); assay: Binding affinity to recombinant N-terminal His-FLAG-GST-tagged JAK2 (unknown origin) (826 to 1132 residues) expressed in baculovirus infected Sf9 insect cells incubated for 1 hr by TR-FRET assay
Tyrosine-protein kinase JAK2, sequence (O60674 whole entry, the tested form may be a part): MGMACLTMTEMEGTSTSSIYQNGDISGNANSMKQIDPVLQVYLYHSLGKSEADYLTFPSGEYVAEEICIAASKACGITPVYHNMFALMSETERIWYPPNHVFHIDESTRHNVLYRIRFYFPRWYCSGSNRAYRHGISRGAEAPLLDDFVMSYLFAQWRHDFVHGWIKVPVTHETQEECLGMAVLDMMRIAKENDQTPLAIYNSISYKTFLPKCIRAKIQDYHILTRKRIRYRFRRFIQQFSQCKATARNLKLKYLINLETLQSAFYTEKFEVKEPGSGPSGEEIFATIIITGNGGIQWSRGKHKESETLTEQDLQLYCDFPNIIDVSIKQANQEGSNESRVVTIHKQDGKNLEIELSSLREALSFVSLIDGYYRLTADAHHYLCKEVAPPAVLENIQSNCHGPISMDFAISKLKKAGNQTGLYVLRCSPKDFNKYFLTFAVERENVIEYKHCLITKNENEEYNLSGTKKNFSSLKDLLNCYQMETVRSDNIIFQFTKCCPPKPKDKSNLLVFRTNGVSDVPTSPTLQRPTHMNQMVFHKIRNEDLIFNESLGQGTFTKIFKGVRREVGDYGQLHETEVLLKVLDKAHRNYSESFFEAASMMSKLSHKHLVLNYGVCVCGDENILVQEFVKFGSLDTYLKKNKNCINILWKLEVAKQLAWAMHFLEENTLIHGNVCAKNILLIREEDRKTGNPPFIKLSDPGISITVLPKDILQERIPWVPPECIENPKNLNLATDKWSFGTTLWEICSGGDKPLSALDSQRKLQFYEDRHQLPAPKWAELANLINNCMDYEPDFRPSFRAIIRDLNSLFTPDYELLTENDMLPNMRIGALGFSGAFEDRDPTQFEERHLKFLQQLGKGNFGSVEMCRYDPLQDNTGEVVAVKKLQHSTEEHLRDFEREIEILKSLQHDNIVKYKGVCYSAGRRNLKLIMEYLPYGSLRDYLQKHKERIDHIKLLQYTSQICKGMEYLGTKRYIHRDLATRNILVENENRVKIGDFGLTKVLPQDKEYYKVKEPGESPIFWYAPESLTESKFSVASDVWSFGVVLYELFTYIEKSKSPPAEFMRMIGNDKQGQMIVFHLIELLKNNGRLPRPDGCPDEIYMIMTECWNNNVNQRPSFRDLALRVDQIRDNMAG

[4] = target: Serine/threonine-protein kinase pim-3 (Homo sapiens, UniProt Q86V86); assay: Binding affinity to recombinant human full-length N-terminal GST-tagged PIM3 expressed in baculovirus expression system using S6K2 peptide as substrate incubated for 1 hr by TR-FRET assay
[5] = target: Serine/threonine-protein kinase Chk2 (Homo sapiens, UniProt O96017); assay: Binding affinity to recombinant full-length N-terminal His-FLAG-GST-tagged CHEK2 (unknown origin) expressed in baculovirus infected Sf9 insect cells incubated for 1 hr by TR-FRET assay
Ephrin type-A receptor 4 = Ephrin type-A receptor 4 (Homo sapiens, UniProt P54764); assay: Binding affinity to recombinant N-terminal His-FLAG-GST-tagged EPHA4 (unknown origin) (586 to 986 residues) expressed in baculovirus infected Sf9 insect cells incubated for 1 hr by TR-FRET assay
[6] = target: Serine/threonine-protein kinase MRCK gamma (Homo sapiens, UniProt Q6DT37); assay: Binding affinity to recombinant full-length N-terminal His-FLAG-GST-tagged DMPK2 (unknown origin) expressed in baculovirus infected Sf9 insect cells incubated for 1 hr by TR-FRET assay
[7] = target: MAP/microtubule affinity-regulating kinase 4 (Homo sapiens, UniProt Q96L34); assay: Binding affinity to recombinant full-length N-terminal His-FLAG-tagged MARK4 (unknown origin) expressed in baculovirus infected Sf9 insect cells incubated for 1 hr by TR-FRET assay
[8] = target: Tyrosine-protein kinase ZAP-70 (Homo sapiens, UniProt P43403); assay: Binding affinity to recombinant full-length N-terminal His-FLAG-GST-tagged ZAP70 (unknown origin) expressed in baculovirus infected Sf9 insect cells incubated for 1 hr by TR-FRET assay
Ephrin type-A receptor 3 = Ephrin type-A receptor 3 (Homo sapiens, UniProt P29320); assay: Binding affinity to recombinant N-terminal His-FLAG-GST-tagged EPHA3 (unknown origin) (579 to 983 residues) expressed in baculovirus infected Sf9 insect cells incubated for 1 hr by TR-FRET assay
[9] = target: cAMP-dependent protein kinase catalytic subunit PRKX (Homo sapiens, UniProt P51817); assay: Binding affinity to recombinant full-length N-terminal His-FLAG-GST-tagged PRKX (unknown origin) expressed in baculovirus infected Sf9 insect cells incubated for 1 hr by TR-FRET assay
[10] = target: Serine/threonine-protein kinase pim-2 (Homo sapiens, UniProt Q9P1W9); assay: Binding affinity to recombinant human full-length N-terminal GST-tagged PIM2 expressed in baculovirus expression system using S6K2 peptide as substrate incubated for 1 hr by TR-FRET assay
Serine/threonine-protein kinase pim-2, sequence (Q9P1W9 whole entry, the tested form may be a part): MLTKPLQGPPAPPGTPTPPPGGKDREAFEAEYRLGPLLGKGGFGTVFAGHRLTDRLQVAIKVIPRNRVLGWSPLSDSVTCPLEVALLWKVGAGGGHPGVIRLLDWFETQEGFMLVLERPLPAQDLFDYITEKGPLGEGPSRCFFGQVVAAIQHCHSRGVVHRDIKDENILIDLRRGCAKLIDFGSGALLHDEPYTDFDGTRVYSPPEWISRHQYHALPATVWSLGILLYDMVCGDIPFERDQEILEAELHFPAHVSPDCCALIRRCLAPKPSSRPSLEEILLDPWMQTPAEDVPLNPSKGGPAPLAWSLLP

[11] = target: Dual specificity mitogen-activated protein kinase kinase 7 (Homo sapiens, UniProt O14733); assay: Binding affinity to recombinant human full-length N-terminal GST-tagged MAP2K7 (1 to 419 residues) expressed in baculovirus expression system using JNK2 as substrate incubated for 1 hr by TR-FRET assay
Dual specificity mitogen-activated protein kinase kinase 7, sequence (O14733 whole entry, the tested form may be a part): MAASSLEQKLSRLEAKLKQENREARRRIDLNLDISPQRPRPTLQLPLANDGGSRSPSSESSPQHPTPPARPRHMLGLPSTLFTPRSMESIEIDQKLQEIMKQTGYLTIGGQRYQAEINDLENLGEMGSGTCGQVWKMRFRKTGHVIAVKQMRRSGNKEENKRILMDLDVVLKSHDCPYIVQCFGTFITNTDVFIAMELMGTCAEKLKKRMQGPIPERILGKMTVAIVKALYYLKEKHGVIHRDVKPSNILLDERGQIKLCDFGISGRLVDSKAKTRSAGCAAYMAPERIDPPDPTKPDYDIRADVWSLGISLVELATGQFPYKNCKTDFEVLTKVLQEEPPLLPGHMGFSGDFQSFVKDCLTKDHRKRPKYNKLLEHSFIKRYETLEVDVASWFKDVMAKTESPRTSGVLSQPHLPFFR

Ephrin type-B receptor 4 = Ephrin type-B receptor 4 (Homo sapiens, UniProt P54760); assay: Binding affinity to recombinant N-terminal His-FLAG-GST-tagged EPHB4 (unknown origin) (577 to 987 residues) expressed in baculovirus infected Sf9 insect cells incubated for 1 hr by TR-FRET assay
[12] = target: Proto-oncogene tyrosine-protein kinase ROS (Homo sapiens, UniProt P08922); assay: Binding affinity to recombinant N-terminal His-FLAG-tagged ROS1 (unknown origin) (1883 to 2347 residues) expressed in baculovirus infected Sf9 insect cells incubated for 1 hr by TR-FRET assay
[13] = target: Tyrosine-protein kinase TXK (Homo sapiens, UniProt P42681); assay: Binding affinity to recombinant human N-terminal GST-tagged TXK (260 to 527 residues) expressed in baculovirus expression system using srctide as substrate incubated for 1 hr by TR-FRET assay
Tyrosine-protein kinase TXK, sequence (P42681 whole entry, the tested form may be a part): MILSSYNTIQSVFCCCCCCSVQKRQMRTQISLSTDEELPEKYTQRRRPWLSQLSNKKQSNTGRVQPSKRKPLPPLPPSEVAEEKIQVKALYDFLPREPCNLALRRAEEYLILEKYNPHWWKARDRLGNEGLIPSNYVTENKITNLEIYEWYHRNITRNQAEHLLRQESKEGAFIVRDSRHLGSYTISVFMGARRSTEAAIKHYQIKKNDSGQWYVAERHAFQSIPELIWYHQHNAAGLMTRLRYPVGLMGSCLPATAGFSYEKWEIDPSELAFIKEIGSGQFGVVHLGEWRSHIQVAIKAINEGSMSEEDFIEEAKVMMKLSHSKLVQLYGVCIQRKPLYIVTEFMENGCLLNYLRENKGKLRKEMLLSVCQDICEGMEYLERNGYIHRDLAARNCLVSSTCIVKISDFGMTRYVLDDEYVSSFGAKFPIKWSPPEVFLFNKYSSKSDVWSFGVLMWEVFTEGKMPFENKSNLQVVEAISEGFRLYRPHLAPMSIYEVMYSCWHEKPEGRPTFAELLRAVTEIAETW

[14] = target: Serine/threonine-protein kinase SIK3 (Homo sapiens, UniProt Q9Y2K2); assay: Binding affinity to recombinant N-terminal His-FLAG-GST-tagged SIK3 (unknown origin) (59 to 365 residues) expressed in baculovirus infected Sf9 insect cells incubated for 1 hr by TR-FRET assay
Ephrin type-B receptor 6 = Ephrin type-B receptor 6 (Homo sapiens, UniProt O15197); assay: Binding affinity to recombinant N-terminal His-FLAG-GST-tagged EPHB6 (unknown origin) (683 to 1130 residues) expressed in baculovirus infected Sf9 insect cells incubated for 1 hr by TR-FRET assay
Ephrin type-A receptor 8 = Ephrin type-A receptor 8 (Homo sapiens, UniProt P29322); assay: Binding affinity to recombinant N-terminal His-FLAG-GST-tagged […] (unknown origin) (571 to 924 residues) expressed in baculovirus infected Sf9 insect cells incubated for 1 hr by TR-FRET assay
Ephrin type-A receptor 8, sequence (P29322 whole entry, the tested form may be a part): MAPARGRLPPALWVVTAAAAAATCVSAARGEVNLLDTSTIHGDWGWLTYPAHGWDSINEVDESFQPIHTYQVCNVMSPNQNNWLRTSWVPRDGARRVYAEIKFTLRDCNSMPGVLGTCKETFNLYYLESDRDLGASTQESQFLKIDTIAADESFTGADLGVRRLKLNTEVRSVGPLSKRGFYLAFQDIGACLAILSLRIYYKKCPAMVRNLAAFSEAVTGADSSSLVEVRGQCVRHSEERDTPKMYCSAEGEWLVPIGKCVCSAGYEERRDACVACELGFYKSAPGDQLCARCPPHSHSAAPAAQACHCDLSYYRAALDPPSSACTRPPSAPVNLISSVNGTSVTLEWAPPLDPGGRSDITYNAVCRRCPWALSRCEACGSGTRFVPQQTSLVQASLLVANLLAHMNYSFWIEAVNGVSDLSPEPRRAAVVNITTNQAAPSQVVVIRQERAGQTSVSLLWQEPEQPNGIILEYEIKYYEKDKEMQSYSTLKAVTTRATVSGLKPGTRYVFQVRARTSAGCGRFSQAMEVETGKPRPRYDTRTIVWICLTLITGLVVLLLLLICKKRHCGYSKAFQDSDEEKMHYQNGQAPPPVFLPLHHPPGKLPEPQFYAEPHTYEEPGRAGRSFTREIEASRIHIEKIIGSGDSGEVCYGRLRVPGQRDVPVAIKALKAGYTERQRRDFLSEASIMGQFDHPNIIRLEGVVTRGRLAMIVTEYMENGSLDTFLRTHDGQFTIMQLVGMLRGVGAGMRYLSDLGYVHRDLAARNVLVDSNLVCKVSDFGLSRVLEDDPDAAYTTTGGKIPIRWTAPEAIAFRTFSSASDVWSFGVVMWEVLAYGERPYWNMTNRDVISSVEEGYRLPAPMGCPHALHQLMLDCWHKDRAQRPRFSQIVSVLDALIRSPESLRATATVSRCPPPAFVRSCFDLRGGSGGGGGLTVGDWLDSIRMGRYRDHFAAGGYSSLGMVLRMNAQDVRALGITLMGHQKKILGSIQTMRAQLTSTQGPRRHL

[15] = target: Mitogen-activated protein kinase 9 (Homo sapiens, UniProt P45984); assay: Binding affinity to recombinant full-length N-terminal His-FLAG-tagged MAPK9 (unknown origin) expressed in baculovirus infected Sf9 insect cells incubated for 1 hr by TR-FRET assay
[16] = target: Homeodomain-interacting protein kinase 2 (Homo sapiens, UniProt Q9H2X6); assay: Binding affinity to recombinant full-length N-terminal His-FLAG-tagged HIPK2 (unknown origin) expressed in baculovirus infected Sf9 insect cells incubated for 1 hr by TR-FRET assay

Serine/threonine-protein kinase Chk1, sequence (O14757 whole entry): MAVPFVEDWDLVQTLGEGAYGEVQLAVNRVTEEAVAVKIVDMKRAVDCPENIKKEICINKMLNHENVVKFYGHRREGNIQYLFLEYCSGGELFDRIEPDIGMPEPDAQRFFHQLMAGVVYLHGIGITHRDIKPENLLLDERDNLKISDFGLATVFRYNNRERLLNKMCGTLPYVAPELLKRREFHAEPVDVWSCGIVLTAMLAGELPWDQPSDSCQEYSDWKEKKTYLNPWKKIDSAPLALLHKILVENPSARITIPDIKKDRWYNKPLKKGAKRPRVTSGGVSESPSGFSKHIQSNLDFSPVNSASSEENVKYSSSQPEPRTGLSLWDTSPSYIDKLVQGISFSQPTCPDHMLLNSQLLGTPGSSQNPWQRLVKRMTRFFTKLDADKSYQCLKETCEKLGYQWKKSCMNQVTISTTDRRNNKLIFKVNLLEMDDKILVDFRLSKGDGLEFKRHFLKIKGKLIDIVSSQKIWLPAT

SMILES: CO[C@@H]1[C@H](NCCOCCOCCOCCNC(=O)CCC2=[N+]3C(=Cc4c(C)cc(C)n4[B-]3(F)F)C=C2)C[C@H]2O[C@]1(C)n1c3ccccc3c3c4c(c5c6ccccc6n2c5c31)C(=O)NC4
- Kd [1]: 20 nM
- Kd (CDK2/Cyclin A2): 94 nM
- Kd [2]: 918 nM
- Kd [3]: 14 nM
- Kd [4]: 4 nM
- Kd [5]: 147 nM
- Kd (Ephrin type-A receptor 4): 1100 nM
- Kd [6]: 7 nM
- Kd [7]: 6 nM
- Kd [8]: 109 nM
- Kd (Ephrin type-A receptor 3): 747 nM
- Kd [9]: 43 nM
- Kd [10]: 15 nM
- Kd [11]: 293 nM
- Kd (Ephrin type-B receptor 4): 1800 nM
- Kd [12]: 238 nM
- Kd [13]: 1010 nM
- Kd [14]: 10 nM
- Kd (Ephrin type-B receptor 6): 570 nM
- Kd (Ephrin type-A receptor 8): 1560 nM

SMILES: CO[C@@H]1[C@H](N(C)CCOCCOCCOCCNC(=O)CCC2=[N+]3C(=Cc4c(C)cc(C)n4[B-]3(F)F)C=C2)C[C@H]2O[C@]1(C)n1c3ccccc3c3c4c(c5c6ccccc6n2c5c31)C(=O)NC4
- Kd [15]: 745 nM
- Kd [16]: 559 nM
